Consider 19 molecules from patent US9714243B2, “4-pyridinonetriazine derivatives as HIV integrase inhibitors” (Merck Sharp & Dohme Corp., priority 2012, dated 2017).

The assay concerns HIV-1 (NL4-3 strain). Kind of assay: Assay for inhibition of HIV replication (ViKinG; infected MT4-GFP cells). Format: cell-based. A digest of the protocol: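 MT4-GFP cells infected with NL4-3 at low MOI for 24 h, washed, then exposed to serially diluted compound (0.4% DMSO) in RPMI. GFP+ cells counted at 24 and 48 h; R0 = 48 h/24 h ratio, inhibition normalised to DMSO and triple-drug controls, IC50 from 4-parameter fit.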

Where [1] appears, read: MT4-GFP cells infected with HIV-1 NL4-3, 0% normal human serum (NHS), read-out: ViKinG IP (nM) with 0% NHS.
[2] abbreviates: MT4-GFP cells infected with HIV-1 NL4-3, 100% normal human serum (NHS), read-out: ViKinG IP (nM) with 100% NHS.
Setting [3] is: Human immunodeficiency virus 1, NL43, MT4-GFP cells infected with HIV-1 NL4-3, 10% normal human serum (NHS), read-out: ViKinG IP (nM) with 10% NHS.
Setting [4] is: Human immunodeficiency virus 1, NL43, MT4-GFP cells infected with HIV-1 NL4-3, 0% normal human serum (NHS), read-out: ViKinG IP (nM) with 0% NHS.
The mark [5] stands for this setting: MT4-GFP cells infected with HIV-1 NL4-3, 10% normal human serum (NHS), read-out: ViKinG IP (nM) with 10% NHS.
Where [6] appears, read: Human immunodeficiency virus 1, NL43, MT4-GFP cells infected with HIV-1 NL4-3, 100% normal human serum (NHS), read-out: ViKinG IP (nM) with 100% NHS.

Where two headings read alike, the source gives them in different places.

Turning to `COC1CCC2(CC1)Cn1cc(-c3nnc(Cc4ccc(F)cc4F)s3)c(=O)c(O)c1C(=O)N2C` (centres unmarked) [Compound 213], the IC50 runs as follows: under setting [1], 5.89 nM; under setting [2], 35.8 nM.

On to `CCOC(=O)C1CC2(CC1(C)C)N(CC)C(=O)c1c(O)c(=O)c(-c3nnc(Cc4ccc(F)cc4F)s3)cn1N2C` (centres unmarked) [Compound 35], for which the IC50 under setting [3] was 100 nM.

Turning to `COCCN1C(=O)c2c(O)c(=O)c(-c3nnc(Cc4ccc(F)cc4F)s3)cn2N(C)C12CC[C@H]1C[C@H]12` (mixture of isomers) [Compound 202], the IC50 under setting [4] stood at 8.36 nM and the IC50 under setting [3] worked out at 1180 nM.

For `COC1(C)CCC2(CC1)N(C)C(=O)c1c(O)c(=O)c(-c3nnc(Cc4ccc(F)cc4F)s3)cn1N2C` (centres unmarked) [Compound 73], the IC50 by setting is: under setting [1], 7.04 nM; under setting [5], 11.9 nM.

Consider `CCN1C(=O)c2c(O)c(=O)c(-c3nnc(Cc4ccc(F)cc4F)s3)cn2N(C)C12CCC(CC(=O)OC)C2` (centres unmarked) [Compound 20], for which the IC50 is, setting by setting: under setting [3], 28.7 nM; under setting [6], 218 nM.

Regarding `CN1C(=O)c2c(O)c(=O)c(-c3nnc(Cc4ccc(F)cc4F)s3)cn2N(C)C12CCC(C(=O)NC1(C)CC1)CC2` (centres unmarked) [Compound 114], the IC50 under setting [1] turned out to be 4.69 nM and the IC50 under setting [5] was determined as 9.07 nM.

Consider `CCN1C(=O)c2c(O)c(=O)c(-c3nnc(Cc4ccc(F)cc4F)s3)cn2N(C)C12CCCc1sccc12` (racemic) [Compound 42], for which the IC50 runs as follows: under setting [4], 92.5 nM; under setting [3], 321 nM.

As to `CCN1C(=O)c2c(O)c(=O)c(-c3nnc(Cc4ccc(F)cc4F)s3)cn2N(C)C12CCCCC(O)C2` (centres unmarked) [Compound 45], the IC50 was 4.07 nM under setting [4] and 122 nM under setting [6].

Consider `CCN1C(=O)c2c(O)c(=O)c(-c3nnc(Cc4ccc(F)cc4F)s3)cn2N(C)C12CCC(C(F)(F)F)CC2` (centres unmarked) [Compound 50], for which the IC50 turned out to be 25.6 nM under setting [1] and 5380 nM under setting [2].

Consider `CCN1C(=O)c2c(O)c(=O)c(-c3nnc(Cc4ccc(F)cc4F)s3)cn2N(C)C1(C)C` [Compound 15], for which the IC50 stood at 3.49 nM under setting [4], 57.9 nM under setting [3] and 971 nM under setting [6].

Consider `COCCN1C(=O)c2c(O)c(=O)c(C(=O)NCc3ccc(F)c(F)c3F)cn2[C@@H](C)C12CC2` [Compound 185], for which the IC50 under setting [4] is 2.2 nM and the IC50 under setting [6] is 212 nM.

Take `CN1C(=O)c2c(O)c(=O)c(-c3nnc(Cc4ccc(F)cc4F)s3)cn2N(C)C12C[C@H]1CC(O)C[C@H]1C2` (some centres unmarked) [Compound 77]: the IC50 under setting [4] is 12.8 nM and the IC50 under setting [3] stood at 58 nM.

In the case of `CN1C2CCCN2C(=O)c2c(O)c(=O)c(-c3nnc(Cc4ccc(F)cc4F)s3)cn21` (racemic) [Compound 155], the IC50 worked out at 48.7 nM under setting [3] and 304 nM under setting [6].

On to `CC(=O)NC1CCC2(CC1)N(C)C(=O)c1c(O)c(=O)c(-c3nnc(Cc4ccc(F)cc4F)s3)cn1N2C` (centres unmarked) [Compound 82], for which the IC50 runs as follows: under setting [4], 63.7 nM; under setting [6], 2560 nM.

On to `CN1n2cc(-c3nnc(Cc4ccc(F)cc4F)s3)c(=O)c(O)c2C(=O)NC12CC[C@@H]1C[C@@H]12` (some centres unmarked) [Compound 196], for which the IC50 under setting [4] was 1.61 nM and the IC50 under setting [6] was 307 nM.

As to `CN(C)C(=O)C1(C)CCC2(CC1)N(C)C(=O)c1c(O)c(=O)c(-c3nnc(Cc4ccc(F)cc4)s3)cn1N2C` (centres unmarked) [Compound 148], the IC50 under setting [5] came out at 8.6 nM and the IC50 under setting [2] is 119 nM.

Take `CCN1C(=O)c2c(O)c(=O)c(-c3nnc(Cc4ccc(F)cc4F)s3)cn2N(C)C1CC(C)=O` (racemic) [Compound 40]: the IC50 was 2.53 nM under setting [4] and 374 nM under setting [3].

In the case of `CCN1C(=O)c2c(O)c(=O)c(-c3nnc(Cc4ccc(F)cc4F)s3)cn2N(C)C12CCC(C(=O)N(C)CC(F)(F)F)CC2` (centres unmarked) [Compound 103], the IC50 reads like this: under setting [1], 6.88 nM; under setting [2], 143 nM.

As for `CN1C(=O)c2c(O)c(=O)c(-c3nnc(Cc4ccc(F)cc4F)s3)cn2N(C)C12CCC(C(=O)NCC1CCS(=O)(=O)C1)CC2` (centres unmarked) [Compound 138], the IC50 was determined as 445 nM under setting [1] and 1180 nM under setting [5].
